Laboratory results published in patent publication US20060025483A1, “(-)-Hydroxycitric acid for protection against soft tissue and arterial calcification” (priority 2004, published 2006).

Experiments:
[1] = rats; diet of 70% glucose and 1% fat; cited from earlier work
C-reactive protein = test: serum C-reactive protein, rats on 30% fat / simple sugar diet; assay type: in vivo; parameters: key to CRP Modulation: ** = significant; details: for Δ OD units after 4 wks: serum CRP, 1 unit equals 50 picograms/mL
Text: (§1) To test the properties of HCA in various forms under conditions similar to those found in human clinical trials, the inventor arranged for rats to be fed a diet in which 30% of the calories were obtained from fat under standard conditions, with a further approximately 20% of the calories being supplied as simple sugars. Such a dietary combination of fat and simple sugars is noted as promoting a variety of metabolic imbalances and dysfunctions. The rats were intubated twice daily with one of five HCA salts or placebo. On weekends, the HCA was added to the food at an approprate dosage. The amount of HCA in each arm of 8 animals was based on the minimum dosage which had been found effective in the form of the pure trisodium salt of HCA in tests by Hoffmann-La Roche in animals ingesting a 70% glucose diet, i.e., 0.33 mmoles/kg body weight HCA given twice per day. The HCA salts used were these: KCaHCA=a mixed potassium and calcium or double metal HCA salt commercially marketed as being entirely water soluble and of relatively high purity; KHCA=a relatively clean commercial potassium salt of HCA with a good mineral ligand attachment supplying 4467 mg potassium/100 grams of material; KMgHCA=three different dosage levels of an experimental potassium and magnesium salt with special characteristics, but suspected of being relatively unstable when exposed to stomach acid. The KCaHCA and KHCA salts were 60% HCA delivered at the rate of approximately 76 mg/day. The KMgHCA salts were delivered at the rate of 76 mg/day (r), 38 mg/day (l) and 228 mg/day (h), but due to initial miscalculations of the water of crystallization, this salt was only 45% HCA rather than 60%. The proper dosage for the KMgHCA(r) should have been 100 mg/day; the half dose (I) should have been 50 mg/day, and the triple dose (h) should have been 300 mg/day to match the commercial salts.
Tests were performed for C-reactive protein. Data was obtained for the animals at start and then at week 4 based on serum. Optical Density (OD) readings in the test kit used were 1 unit equals 50 picograms/mL. The delta changes over the 4 weeks for each arm vs control are shown.

[2] = body weight in the C-reactive protein study; assay type: in vivo, rats; details: by week 6; salt 76 mg/day
Text: as §1, with “The KCaHCA and KHCA salts were 60% HCA delivered at the rate of approximately 76 mg/day. The KMgHCA salts were delivered at the rate of 76 mg/day (r), 38 mg/day (l) and 228 mg/day (h), but due to initial miscalculations of the water of crystallization, this salt was only 45% HCA rather than 60%. The proper dosage for the KMgHCA(r) should have been 100 mg/day; the half dose (I) should have been 50 mg/day, and the triple dose (h) should have been 300 mg/day to match the commercial salts.” left out

insulin = test: circulating insulin concentrations; assay type: in vivo, Sprague-Dawley Rats; details: for average insulin concentrations vs control: not significant using ANOVA
Text: (§2) A known effect of ACE inhibitors is a reduction in elevated systolic blood pressure. To test this, the following protocol was employed: Sprague-Dawley Rats (SD), approximately 8 weeks of age were obtained. Six groups of eight male SD received the same standard rat chow manufactured to specifications. The special diets derived 30% of calories from fats (one half from lard and one half from corn oil), 50% from carbohydrates, and 20% from proteins. Twenty percent of dietary calories was derived from sucrose and the preponderance of the remaining carbohydrate calories was derived from dextrin. During weekdays (M-F), each group was gavaged twice daily with a solution containing a commercial source of potassium hydroxycitrate (KHCA), a commercial source of potassium-calcium hydroxycitrate (KCaHCA), or a pre-commercial non-salt source of potassium-magnesium hydroxycitrate (KMgHCA, listed as KMgHCA L-Low, M-Intermediate or H-High depending upon the dose). Over the weekends (S-S), a similar quantity of the weekday daily dose was added to twenty grams of food, that is, an amount of food estimated to be close to the daily intake of the animals. At initiation of study and four weeks, and eight weeks later, bloods were drawn from all SD for routine blood chemistries. Body weight (BW) was measured weekly and systolic blood pressure (SBP) was measured every two weeks.
(§3) Statistical Analyses: Results are presented as mean±SEM. Many statistics were performed by one-way analysis of variance (ANOVA). SBP and BW were examined by two-way analyses of variance (one factor being dietary group and the second factor being time of examination). Where a significant effect of diet was detected by ANOVA (p<0.05), the Dunnett t test was used to establish which differences between means reached statistical significance (p<0.05). If a Student's t test was employed, this is noted.

systolic blood pressure [3] = test: earlier study of SBP not described here; assay type: in vivo; details: 120 mg HCA per day
systolic blood pressure [4] = test: systolic blood pressure (SBP) by tail plethysmography, rats on 30% fat / sucrose diet; assay type: in vivo, Sprague-Dawley Rats; details: for lowering of SBP: end of 8 weeks
Text: as §2
The HCA dosages in the arms varied. The dosage used in the KHCA arm was extrapolated from the recommended 1,500 mg HCA per day for humans consuming a normal diet (i.e., ≧30% calories derived from fats) advocated by a commercial seller of KHCA and claimed to have produced acceptable clinical results. The approximate equivalent for the rat model is 35.4 mg HCA per day, which we increased to 38.4 mg HCA per day for convenience in employing a 48% HCA potassium salt and to remain safely on the high side in practice. For the sake of comparison, a commercial KCaHCA salt (60% HCA) was chosen and delivered at an HCA dosage level of 48 mg per day, which slightly exceeded the lowest dosage of HCA found to be efficacious for inhibition of weight gain in rats in the early pharmaceutical trials (45.4 mg/day) using pure trisodium hydroxycitrate and a very low fat diet. The design thus utilized a realistic diet with rough equivalents of the HCA dosages claimed to be effective in both the human and rat models.
The experimental KMgHCA dosings varied considerably from that of the other two salts. […] As a result, the recalculated HCA doses for the experimental compound were a low dose (KMgHCA L) of 14 mg, an intermediate dose (KMgHCA M) of 28 mg and a high dose (KMgHCA H) of 84 mg per day. The difficulty in calculating the HCA content in this case is not unique inasmuch as there is as of yet no universally accepted method for calculating the HCA content of the various salts. Again, preparations yielded the equivalent of 48 mg HCA per day from KCaHCA and 38.4 mg HCA per day from KHCA.
(§4) Systolic Blood Pressure (SBP): SBP was estimated by tail plethysmography in unanesthetized rats after a brief warming period. Readings were taken approximately one minute apart. To be accepted, SBP measurements had to be virtually stable for a minimum of three consecutive readings.
as §3

ACE system = test: response of SBP to losartan challenge; assay type: in vivo, Spontaneously hypertensive rats (SHR); details: at 6 hours; control SHR without HCA
Text: Many factors can positively influence blood pressure, e.g., diuretics, antioxidants, regulators of sympathetic/parasympathetic tone, compounds that improve insulin sensitivity and so forth. Therefore, losartan, an angiotensin-2 receptor blocker, was utilized to discover whether the ACE system was involved in the results discussed in Example 1.
(§5) Spontaneously hypertensive rats (SHR) were placed on a diet composed of regular rat chow (60% w/w) and table sugar (40% w/w). This diet reliably elevates blood pressure in this animal model. One group received 100 mg HCA per day in the form of a new potassium-magnesium hydroxycitrate (different from that used in Example 1) via an added 5 g HCA per kg of food mix. Systolic blood pressure and body weight were tested as in Example 1 on a weekly basis.
When losartan was injected, the SBP of both groups decreased. At 6 hours, the SBP were essentially the same. […] Thus, HCA appears to decrease angiotensin-2 in rats and to lower elevated SBP. Although insulin regulation likely is a factor in the blood pressure modulating effect of HCA, this evidence argues that inhibition of ACE is also important. […]

TNF-α = test: TNF-α, rats on 30% fat / simple sugar diet; assay type: in vivo; details: eight weeks
Text: as §1, with “The KCaHCA and KHCA salts were 60% HCA delivered at the rate of approximately 76 mg/day. The KMgHCA salts were delivered at the rate of 76 mg/day (r), 38 mg/day (l) and 228 mg/day (h), but due to initial miscalculations of the water of crystallization, this salt was only 45% HCA rather than 60%. The proper dosage for the KMgHCA(r) should have been 100 mg/day; the half dose (I) should have been 50 mg/day, and the triple dose (h) should have been 300 mg/day to match the commercial salts.” left out

[5] = body weight in SHR on rat chow / table sugar diet; assay type: in vivo, Spontaneously hypertensive rats (SHR); details: 100 mg HCA per day in food; over three weeks
Protocol: as §5

systolic blood pressure [6] = test: SBP in SHR on rat chow / table sugar diet; assay type: in vivo, Spontaneously hypertensive rats (SHR); details: 100 mg HCA per day in food; over three weeks
Protocol: as §4, §5

[7] = glucose tolerance test with 0.1 unit regular insulin injected along with glucose; assay type: in vivo, Spontaneously hypertensive rats (SHR); details: at 7.5 minutes; 100 mg HCA per day in food
Protocol: This was viewed as likely positive in that rats gain weight steadily as long as they remain in good health and the SHR at middle age, as used here, lives a relatively short life and its health deteriorates as its blood pressure rises. […] A glucose tolerance test was administered in which 0.1 unit of regular insulin was injected along with glucose. […] This finding indicates increased insulin sensitivity. (FIG. 6)

[8] = pilot open clinical weight loss trial with extremely obese patients; assay type: in vivo, human
Text: A multi-week pilot open clinical weight loss trial with extremely obese patients was planned to gauge the effects of a pouch delivery form of a potassium salt of (−)-hydroxycitrate under the normal circumstances faced in clinical practice with this patient population. Fourteen patients were enrolled, three of whom were diabetics on medications and several others who were suspected of suffering from insulin resistance. The patients ingested 3-4 grams of HCA per day in two divided doses. Aside from being informed that they must eat a carbohydrate-containing meal within one hour of taking the HCA and that they should avoid eating late in the day, they were not instructed to follow any special diet or exercise plan outside their normal habits and no caloric restriction was imposed. This particular form of potassium (−)-hydroxycitrate delivery typically was mixed into water or juice and consumed at mid-morning and mid-afternoon. The delivery was a water-soluble immediate release form. […] A number of patients continued on the program for 6 weeks. However, comparative data was good for only 3 weeks because two of the diagnosed diabetics experienced hypoglycemic reactions. Several other patients experienced good appetite suppression, yet also complained off episodic tiredness at the beginning of the program, a sign of low blood sugar. Two patients subsequently were placed on phentermine. […] The average weight loss over the 3 week period for these patients was approximately 3 pounds per person per week. […] At therapeutically effective dosages, HCA probably should be used with diabetic populations only under a physician's care.

O=C([O-])CC(O)(C(=O)[O-])C(O)C(=O)[O-].[Na+].[Na+].[Na+] (stereo not drawn) [trisodium hydroxycitrate]
lowest dose shown to be efficacious in reducing weight gain [1]: 0.33 mmol/kg twice a day

O=C([O-])CC(O)(C(=O)[O-])C(O)C(=O)[O-].[Ca+2].[K+] (stereo not drawn) [KCaHCA, potassium-calcium hydroxycitrate]
change in CRP compared with control, significance (C-reactive protein; 4 wks, salt 76 mg/day): failed to yield significant results
Δ OD units after 4 wks (C-reactive protein; salt 76 mg/day): 56 OD units
body weight, trend difference from control [2]: greatest trend differences
trend of circulating insulin (insulin; 48 mg HCA per day): did not show a trend toward lower circulating insulin
SBP (systolic blood pressure [3]): decrease in SBP
SBP compared to control (systolic blood pressure [4]; end of eight weeks, 48 mg HCA per day): significant decreases in SBP compared to control

CCCCc1nc(Cl)c(CO)n1Cc1ccc(-c2ccccc2-c2nn[nH]n2)cc1 [losartan, reference compound]
decrease in SBP after losartan injection (ACE system): −50±6.1

O=C([O-])CC(O)(C(=O)[O-])C(O)C(=O)[O-].[K+].[Mg+2] (stereo not drawn) [KMgHCA, potassium-magnesium hydroxycitrate]
TNF-α, simple t test versus control (TNF-α; intermediate dose): significance
TNF-α, simple t test versus control (TNF-α; low dose): significance
CRP Modulation (C-reactive protein; 4 wks, salt 38 mg/day): **
CRP Modulation (C-reactive protein; 4 wks, salt 76 mg/day): **
CRP Modulation (C-reactive protein; 4 wks, salt 228 mg/day): **
Δ OD units after 4 wks (C-reactive protein; salt 38 mg/day): 33 OD units
Δ OD units after 4 wks (C-reactive protein; salt 76 mg/day): −145 OD units
Δ OD units after 4 wks (C-reactive protein; salt 228 mg/day): −11.3 OD units
body weight [5]: trend for an increase in body weight
SBP change from baseline (systolic blood pressure [6]): decrease in SBP from baseline
insulin, control versus arm alone, Student's t test (insulin; 84 mg HCA per day): at the margin of significance
average insulin concentrations vs control (insulin; all KMgHCA groups (14, 28, 84 mg HCA per day)): lower
rise in glucose appearance in bloodstream [7]: significantly lesser rise in glucose appearance in bloodstream
SBP compared to control (systolic blood pressure [4]; course of study, low dose 14 mg HCA per day): below the threshold for effect
lowering of SBP (systolic blood pressure [4]; high dose 84 mg HCA per day): over 10 mm Hg
lowering of SBP (systolic blood pressure [4]; intermediate dose 28 mg HCA per day): over 10 mm Hg
SBP compared to control (systolic blood pressure [4]; end of eight weeks, high dose 84 mg HCA per day): significant decreases in SBP compared to control
SBP compared to control (systolic blood pressure [4]; end of eight weeks, intermediate dose 28 mg HCA per day): significant decreases in SBP compared to control

O=C([O-])CC(O)(C(=O)[O-])C(O)C(=O)[O-].[K+].[K+].[K+] (stereo not drawn) [KHCA, potassium hydroxycitrate]
CRP Modulation (C-reactive protein; 4 wks, salt 76 mg/day): **
Δ OD units after 4 wks (C-reactive protein; salt 76 mg/day): −155 OD units
body weight, trend difference from control [2]: greatest trend differences
insulin, control versus arm alone, Student's t test (insulin; 38.4 mg HCA per day): showed significance
average insulin concentrations vs control (insulin; 38.4 mg HCA per day): lower
SBP compared to control (systolic blood pressure [4]; end of eight weeks, 38.4 mg HCA per day): significant decreases in SBP compared to control

O=C([O-])CC(O)(C(=O)[O-])C(O)C(=O)[O-].[K+].[K+].[K+] (stereo not drawn) [potassium (−)-hydroxycitrate]
average weight loss ([8]; 3-4 grams of HCA per day in two divided doses, over the 3 week period): approximately 3 pounds per person per week
tolerability ([8]; apart from inconvenience and poor taste): no other issues of tolerability
hypoglycemic effect ([8]; immediate release format, diabetics, 3-4 grams of HCA per day): strong hypoglycemic effect in diabetics
weight loss ([8]; one patient, over 10 weeks): 32 pounds
